Data from US20240116985A1, “STAPLED PEPTIDES AND METHODS THEREOF” (priority 2020, published 2024).
Read-outs that look alike come from different tables or passages of the source.

Experiments:
[1] = target: T1, full-length beta-Catenin (Uniprot ID P35222) (Homo sapiens, UniProt P35222); assay: Fluorescence polarization IC50 (beta-catenin / 5FAM-TCF4 10-53 competition); assay type: binding; details: fluorescence polarization; read-out: beta-Catenin FP IC50
T1 construct: 10 nM full-length beta-Catenin (Uniprot ID P35222)
T1 sequence (P35222 1-781): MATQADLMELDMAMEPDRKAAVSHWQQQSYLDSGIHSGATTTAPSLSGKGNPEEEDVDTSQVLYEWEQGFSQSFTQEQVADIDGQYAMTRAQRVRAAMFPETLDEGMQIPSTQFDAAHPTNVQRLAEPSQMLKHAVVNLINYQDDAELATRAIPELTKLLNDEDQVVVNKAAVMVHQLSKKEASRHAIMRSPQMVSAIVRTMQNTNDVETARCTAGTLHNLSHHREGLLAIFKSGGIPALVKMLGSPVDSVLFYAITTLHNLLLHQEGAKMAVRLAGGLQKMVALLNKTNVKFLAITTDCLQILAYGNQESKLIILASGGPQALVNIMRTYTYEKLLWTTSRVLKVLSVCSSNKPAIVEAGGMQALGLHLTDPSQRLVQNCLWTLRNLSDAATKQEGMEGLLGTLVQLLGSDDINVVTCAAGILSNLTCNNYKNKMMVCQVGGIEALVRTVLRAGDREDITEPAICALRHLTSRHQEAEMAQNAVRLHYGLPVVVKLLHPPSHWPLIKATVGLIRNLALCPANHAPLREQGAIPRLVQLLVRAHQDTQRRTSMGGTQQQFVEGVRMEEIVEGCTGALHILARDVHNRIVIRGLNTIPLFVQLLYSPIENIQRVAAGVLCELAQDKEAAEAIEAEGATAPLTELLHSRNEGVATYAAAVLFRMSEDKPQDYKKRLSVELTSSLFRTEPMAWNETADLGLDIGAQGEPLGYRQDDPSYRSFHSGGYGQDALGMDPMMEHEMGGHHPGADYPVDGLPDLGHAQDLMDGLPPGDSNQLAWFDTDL

[2] = target: T2, beta-catenin/TCF4 engagement (Homo sapiens, UniProt P35222); assay: Nano-BRET target engagement assay (B-cat-Halo & TCF4-Luc in HEK293 cells); assay type: cell-based; details: read-out: NanoBRET Abs IC50
T2 construct: expressed in transfected cells; host or cells: HEK293
T2 sequence (P35222 1-781): T1 sequence (P35222 1-781)

Structure (SMILES) | IC50 [1] [nM] | IC50 ([2]; absolute IC50) [nM] | IC50 [2] [nM]
CC(=O)N1CCC[C@]12CC=CCCCC1(CCCC=CCCCOC(=O)N3CC[C@@](C(=O)N[C@@H](Cc4ccccc4Cl)C(=O)N[C@@H](Cc4csc5ccccc45)C(=O)N[C@@H](CCCCNC(C)C)C(N)=O)(C3)NC(=O)[C@H]([C@@H](C)O)NC(=O)[C@H](Cc3ccccc3)NC(=O)[C@H](C)NC(=O)[C@H](C)NC(=O)[C@H](CN(CC(=O)O)CC(F)(F)F)NC(=O)[C@H](CC(=O)O)NC1=O)NC(=O)[C@H](CC(C)(C)C)NC(=O)[C@H](CC(=O)O)NC2=O (stereo partly drawn) [I-1615, Ac-PL3-Asp-Npg-B5-Asp-TfeGA-Ala-Ala-Phe-Thr-PyrS2-2C1F-BztA-iPrLys-NH2] | 9 | 8000 | –
CC(=O)N1CCC[C@]12CC=CCCCC1(CCCC=CCCCOC(=O)N3CC[C@@](C(=O)N[C@@H](Cc4ccsc4)C(=O)N[C@@H](Cc4csc5ccccc45)C(=O)N[C@@H](CCC(N)=O)C(N)=O)(C3)NC(=O)[C@H](Cn3cc(CN4CCNCC4)nn3)NC(=O)[C@H](Cc3ccccc3)NC(=O)[C@H](C)NC(=O)[C@H](C)NC(=O)[C@H](CN(CC(=O)O)CC(F)(F)F)NC(=O)[C@H](CC(=O)O)NC1=O)NC(=O)[C@H](CC(C)(C)C)NC(=O)[C@H](CC(=O)O)NC2=O (stereo partly drawn) [I-1864, Ac-PL3-Asp-Npg-B5-Asp-TfeGA-Ala-Ala-Phe-[CH2Ppz]TriAzDap-PyrS2-3Thi-BztA-Gln-NH2] | 14 | – | > 20000
CC(=O)N1CCC[C@]12CC=CCCCC1(CCCC=CCCCOC(=O)N3CC[C@@](C(=O)N[C@@H](Cc4ccsc4)C(=O)N[C@@H](Cc4csc5ccccc45)C(=O)N[C@@H](CCC(N)=O)C(N)=O)(C3)NC(=O)[C@H](CC(C)C)NC(=O)C(Cc3cccc(C(=O)Oc4ccccc4)c3)NC(=O)[C@H](C)NC(=O)[C@H](C)NC(=O)[C@H](CN(CC(=O)O)CC(F)(F)F)NC(=O)[C@H](CC(=O)O)NC1=O)NC(=O)[C@H](CC(C)(C)C)NC(=O)[C@H](CC(=O)O)NC2=O (single isomer, unassigned) [I-2151, Ac-PL3-Asp-Npg-B5-Asp-TfeGA-Ala-Ala-3CO2PhF-Leu-PyrS2-3Thi-BztA-Gln-NH2] | 58 | – | 14600
CC(=O)N1CCC[C@]12CC=CCCCC1(CCCC=CCCCOC(=O)N3CC[C@@](C(=O)N[C@@H](Cc4ccsc4)C(=O)N[C@@H](Cc4csc5ccccc45)C(=O)N[C@@H](CCC(N)=O)C(N)=O)(C3)NC(=O)[C@H](Cn3cc(CN4CCOCC4)nn3)NC(=O)[C@H](Cc3ccccc3)NC(=O)[C@H](C)NC(=O)[C@H](C)NC(=O)[C@H](CN(CC(=O)O)CC(F)(F)F)NC(=O)[C@H](CC(=O)O)NC1=O)NC(=O)[C@H](CC(C)(C)C)NC(=O)[C@H](CC(=O)O)NC2=O (stereo partly drawn) [I-1866, Ac-PL3-Asp-Npg-B5-Asp-TfeGA-Ala-Ala-Phe-[MorphCH2]TriAzDap-PyrS2-3Thi-BztA-Gln-NH2] | 26 | – | > 20000
CC(=O)N1CCC[C@]12CC=CCCCC1(CCCC=CCCCOC(=O)N3CC[C@@](C(=O)N[C@@H](Cc4ccccc4Cl)C(=O)N[C@@H](Cc4csc5ccccc45)C(=O)N[C@H](C)C(N)=O)(C3)NC(=O)[C@H](CO)NC(=O)[C@H](Cc3ccccc3)NC(=O)[C@H](C)NC(=O)[C@H](C)NC(=O)[C@H](Cc3cccc(C(=O)O)c3)NC(=O)[C@H](CC(=O)O)NC1=O)NC(=O)[C@H](CC(C)(C)C)NC(=O)[C@H](CC(=O)O)NC2=O (stereo partly drawn) [I-2030, Ac-PL3-Asp-Npg-B5-Asp-3COOHF-Ala-Ala-Phe-Ser-PyrS2-2C1F-BztA-dAla-NH2] | 22 | – | 3900
CC(=O)N1CCC[C@]12CC=CCCCC1(CCCC=CCCCOC(=O)N3CC[C@@](C(=O)N[C@@H](Cc4ccsc4)C(=O)N[C@@H](Cc4csc5ccccc45)C(=O)N[C@H](CCC(N)=O)C(N)=O)(C3)NC(=O)[C@H](CC(C)C)NC(=O)[C@H](Cc3ccccc3)NC(=O)[C@H](C)NC(=O)[C@H](C)NC(=O)[C@H](Cc3cccc(C(=O)O)c3)NC(=O)[C@H](CC(=O)O)NC1=O)NC(=O)[C@H](CC(C)(C)C)NC(=O)[C@H](CC(=O)O)NC2=O (stereo partly drawn) [I-2088, Ac-PL3-Asp-Npg-B5-Asp-3COOHF-Ala-Ala-Phe-Leu-PyrS2-3Thi-BztA-dGln-NH2] | 10 | – | 4400
CC(=O)N1CCC[C@]12CC=CCCCC1(CCCC=CCCCOC(=O)N3CC[C@@](C(=O)N[C@@H](Cc4ccsc4)C(=O)N[C@@H](Cc4csc5ccccc45)C(=O)N[C@@H](CCC(N)=O)C(N)=O)(C3)NC(=O)[C@H](CC(C)C)NC(=O)[C@H](Cc3ccccc3)NC(=O)[C@H](C)NC(=O)[C@H](C)NC(=O)[C@H](CN(CC(=O)O)CC(F)(F)F)NC(=O)[C@H](CC(=O)O)NC1=O)NC(=O)[C@H](CCC(C)(C)C)NC(=O)[C@H](CC(=O)O)NC2=O (stereo partly drawn) [I-1772, Ac-PL3-Asp-Npa-B5-Asp-TfeGA-Ala-Ala-Phe-Leu-PyrS2-3Thi-BztA-Gln-NH2] | 14 | 6800 | –
CC(=O)N1CCC[C@]12CC=CCCCC1(CCCC=CCCCOC(=O)N3CC[C@@](C(=O)N[C@@H](Cc4ccsc4)C(=O)N[C@@H](Cc4ccc(Cl)c(Cl)c4)C(=O)N[C@@H](CCC(N)=O)C(N)=O)(C3)NC(=O)[C@H](CC(C)C)NC(=O)[C@H](Cc3ccccc3)NC(=O)[C@H](C)NC(=O)[C@H](C)NC(=O)[C@H](Cc3cccc(C(=O)O)c3)NC(=O)[C@H](CC(=O)O)NC1=O)NC(=O)[C@H](CC(C)(C)C)NC(=O)[C@H](CC(=O)O)NC2=O (stereo partly drawn) [I-2216, Ac-PL3-Asp-Npg-B5-Asp-3COOHF-Ala-Ala-Phe-Leu-PyrS2-3Thi-34C1F-Gln-NH2] | 7 | 3400 | –
CCCC[C@@H]1NC(=O)[C@H](CC(=O)O)NC(=O)[C@]2(CC=CCCCC3(CCCC=CCCCOC(=O)N4CC[C@@](C(=O)N[C@@H](Cc5ccccc5)C(=O)N[C@@H](Cc5csc6ccccc56)C(=O)N[C@@H](CCC(N)=O)C(N)=O)(C4)NC(=O)[C@H](CCCC)NC(=O)[C@H](Cc4ccccc4)NC(=O)[C@H](C)NC(=O)[C@H](C)NC(=O)[C@H](CC(=O)O)NC(=O)[C@H](CC(=O)O)NC3=O)NC1=O)CCCN2C(C)=O (stereo partly drawn) [I-1405, Ac-PL3-Asp-nLeu-B5-Asp-Asp-Ala-Ala-Phe-nLeu-PyrS2-Phe-BztA-Gln-NH2] | 9 | 40100 | –
CC(=O)N1CCC[C@]12CC=CCCCC1(CCCC=CCCCOC(=O)N3CC[C@@](C(=O)N[C@@H](Cc4ccccc4Cl)C(=O)N[C@@H](Cc4csc5ccccc45)C(=O)N[C@@H](CC(N)=O)C(N)=O)(C3)NC(=O)[C@H](CO)NC(=O)[C@H](Cc3ccccc3)NC(=O)[C@H](C)NC(=O)[C@H](C)NC(=O)[C@H](Cc3cccc(C(=O)O)c3)NC(=O)[C@H](CC(=O)O)NC1=O)NC(=O)[C@H](CC(C)(C)C)NC(=O)[C@H](CC(=O)O)NC2=O (stereo partly drawn) [I-2039, Ac-PL3-Asp-Npg-B5-Asp-3COOHF-Ala-Ala-Phe-Ser-PyrS2-2C1F-BztA-Asn-NH2] | 9 | – | 10500
CC(=O)N1CCC[C@]12CC=CCCCC1(CCCC=CCCCOC(=O)N3CC[C@@](C(=O)N[C@@H](Cc4ccsc4)C(=O)N[C@@H](Cc4ccc5c(c4)CCC5)C(=O)N[C@@H](C)C(N)=O)(C3)NC(=O)[C@H](C(C)C)NC(=O)[C@H](Cc3ccccc3)NC(=O)[C@H](C)NC(=O)[C@H](CCC(N)=O)NC(=O)[C@H](Cc3cccc(C(=O)O)c3)NC(=O)[C@H](CC(=O)O)NC1=O)NC(=O)[C@H](CC(C)(C)C)NC(=O)[C@H](CC(=O)O)NC2=O (stereo partly drawn) [I-2296, Ac-PL3-Asp-Npg-B5-Asp-3COOHF-Gln-Ala-Phe-Val-PyrS2-3Thi-5IndA-Ala-NH2] | 6 | 5100 | –
CC(=O)N1CCC[C@]12CC=CCCCC1(CCCC=CCCCOC(=O)N3CC[C@@](C(=O)N[C@@H](Cc4ccsc4)C(=O)N[C@@H](Cc4csc5ccccc45)C(=O)N[C@@H](C)C(N)=O)(C3)NC(=O)[C@H](CC(C)C)NC(=O)[C@H](Cc3ccccc3)NC(=O)[C@H](C)NC(=O)[C@H]([C@@H](C)O)NC(=O)[C@H](Cc3cccc(C(=O)O)c3)NC(=O)[C@H](CC(=O)O)NC1=O)NC(=O)[C@H](CC(C)(C)C)NC(=O)[C@H](CC(=O)O)NC2=O (stereo partly drawn) [I-2051, Ac-PL3-Asp-Npg-B5-Asp-3COOHF-Thr-Ala-Phe-Leu-PyrS2-3Thi-BztA-Ala-NH2] | 16 | – | 8300
CC(=O)N1CCC[C@]12CC=CCCCC1(CCCC=CCCCOC(=O)N3CC[C@@](C(=O)N[C@@H](Cc4ccccc4C(F)(F)F)C(=O)N[C@@H](Cc4csc5c(F)cccc45)C(=O)N[C@@H](CCC(N)=O)C(N)=O)(C3)NC(=O)[C@H](CC(C)C)NC(=O)[C@H](Cc3ccccc3)NC(=O)[C@H](C)NC(=O)[C@H](C)NC(=O)[C@H](Cc3cccc(C(=O)O)c3)NC(=O)[C@H](CC(=O)O)NC1=O)NC(=O)[C@H](CC(C)(C)C)NC(=O)[C@H](CC(=O)O)NC2=O (stereo partly drawn) [I-2488, Ac-PL3-Asp-Npg-B5-Asp-3COOHF-Ala-Ala-Phe-Leu-PyrS2-2F3MeF-7FBztA-Gln-NH2] | 26 | 3600 | –
